“And” between values parts separate entries of the source, which are not always exact repeats. Equal values may be shown once.
What was measured:
α1β2γ2 GABAA receptors = target: T1, α1β2γ2 GABAA receptors (Rattus norvegicus, UniProt P18508+P62813); experiment: Stimulation of currents elicited by GABA (EC3-5), two-electrode voltage clamp, receptors expressed in Xenopus oocytes; format: cell-based
T1 construct: expressed in transfected cells; host or cells: Xenopus laevis oocytes, cRNA microinjection
T1 sequence (P62813 28-455): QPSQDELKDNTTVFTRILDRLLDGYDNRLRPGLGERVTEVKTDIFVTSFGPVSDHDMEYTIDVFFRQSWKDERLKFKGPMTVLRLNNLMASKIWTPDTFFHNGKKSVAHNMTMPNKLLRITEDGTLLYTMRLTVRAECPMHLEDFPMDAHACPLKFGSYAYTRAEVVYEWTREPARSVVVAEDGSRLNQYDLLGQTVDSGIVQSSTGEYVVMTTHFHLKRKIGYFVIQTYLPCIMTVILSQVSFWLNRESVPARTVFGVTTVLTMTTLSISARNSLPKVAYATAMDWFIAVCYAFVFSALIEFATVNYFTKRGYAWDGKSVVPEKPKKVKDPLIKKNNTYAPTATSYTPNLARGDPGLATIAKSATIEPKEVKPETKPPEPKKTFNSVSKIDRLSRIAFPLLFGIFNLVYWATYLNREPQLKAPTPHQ
T1 sequence (P63138 25-474 partner limits assumed): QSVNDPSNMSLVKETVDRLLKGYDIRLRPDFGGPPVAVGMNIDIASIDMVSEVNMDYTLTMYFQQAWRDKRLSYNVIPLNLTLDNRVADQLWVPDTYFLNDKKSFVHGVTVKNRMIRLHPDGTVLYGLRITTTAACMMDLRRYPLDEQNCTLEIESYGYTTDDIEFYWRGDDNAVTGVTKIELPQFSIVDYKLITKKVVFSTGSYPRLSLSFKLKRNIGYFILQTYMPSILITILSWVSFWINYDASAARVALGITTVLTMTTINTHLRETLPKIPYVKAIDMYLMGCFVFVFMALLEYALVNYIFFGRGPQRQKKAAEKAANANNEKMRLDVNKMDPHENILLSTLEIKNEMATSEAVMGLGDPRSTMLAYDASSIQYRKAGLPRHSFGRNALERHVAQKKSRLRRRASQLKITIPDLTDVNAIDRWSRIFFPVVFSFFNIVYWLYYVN
T1 sequence (P18508 39-466): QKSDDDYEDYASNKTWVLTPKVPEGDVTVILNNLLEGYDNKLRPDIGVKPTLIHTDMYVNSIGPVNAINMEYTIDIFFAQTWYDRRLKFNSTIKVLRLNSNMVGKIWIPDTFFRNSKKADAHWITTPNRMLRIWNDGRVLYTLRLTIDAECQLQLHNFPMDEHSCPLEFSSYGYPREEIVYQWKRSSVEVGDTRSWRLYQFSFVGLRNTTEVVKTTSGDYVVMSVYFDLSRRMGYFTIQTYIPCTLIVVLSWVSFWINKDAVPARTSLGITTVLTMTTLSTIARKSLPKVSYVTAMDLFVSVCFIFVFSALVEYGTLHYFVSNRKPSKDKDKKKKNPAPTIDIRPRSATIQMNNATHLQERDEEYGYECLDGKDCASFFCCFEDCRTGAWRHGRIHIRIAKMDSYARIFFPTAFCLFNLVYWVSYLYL
Excerpt: (§1) 7-Chloro-3-(5-dimethylaminomethyl-[1,2,4]oxadiazol-3-yl)-5-methyl-4,5-dihydro-imidazol[1,5,-a][1,4]benzodiazepine-6-one was used to test the effects of the compound of formula (II): […]
(§2) Similar procedures were chosen as for the investigation of other GABAA receptor subunit specific substances (e.g., Baur et al., 2005; Mol. Pharmacol. 68, 787-792).
(§3) Lobes of the ovary containing the follicles were obtained by surgical procedures from female Xenopus laevis. Follicles were singled out using a platinum loop. Fifty nL of cRNA solution at a ratio of αx:β2:γ2 of 1:1:5 (3.3-10 nM αx (x=1, 2, 3, 5); 3.3-10 nM β2; 16.7-50 nM γ2) (Boileau et al., 2002; Neuropharmacology 43, 695-700) were microinjected into Xenopus follicles. Several hours after microinjection the follicles were freed of follicular layers and adhering connective tissue by a collagenase/hypertonic shock procedure (Sigel, 1987; J. Physiol. (Land) 386, 73-90). Oocytes were kept at constant 18° C. until measurement (1-4 days) in a modified Barth solution (88 mM NaCl, 1 mM KCl, 2.4 mM NaHCO3, 10 mM Hepes-NaOH (pH 7.5), 0.82 mM MgSO4×7H2O, 0.34 mM Ca(NO3)2×4H2O, 0.41 mM CaCl2×2H2O, 100 U Penicillin/mL, 100 μg Streptomycin/mL, sterile filtered).
(§4) Currents were measured using a home-built amplifier in combination with a xy-recorder or were digitized using a MacLab/200 (AD Instruments) and stored on a computer. Xenopus oocytes were voltage clamped using the two-electrode voltage clamp technique (electrode resistance about 0.8 MΩ) at −80 mV. The medium contained 90 mM NaCl, 1 mM KCl, 1 mM MgCl2, 1 mM CaCl2, 10 mM Na-Hepes (pH 7.4) and 0.5% DMSO.
GABA was applied for 20-50 seconds without or in combination with other drugs and a washout period of 4 minutes was allowed to ensure full recovery from desensitization, which was experimentally determined. The perfusion solution (6 mL/min) was applied through a glass capillary with an inner diameter of 1.35 mm, the mouth of which was placed about 0.4 mm from the surface of the oocyte. The rate of solution change under our conditions has been estimated 70% within less than 0.5 s (Sigel et al., 1990; Neuron 5, 703-711). The entire perfusion system and the assay chamber were cleaned between drug applications by washing with DMSO.
Data is given as mean±SD, except in the figures where data is shown for clarity as mean±SEM. Current stimulation was calculated as follows: stimulation (%)=((I(GABA+modulator)−I(GABA))/I(GABA))×100%, where I is the current amplitude. Where indicated, the stimulation was standardized to the stimulation by 1 μM diazepam (100%). To obtain FIGS. 1-4, values for current stimulation obtained at a given concentration of modulator at a given subunit combination were averaged. The data points were fitted with the equation stimulation=efficacy/(1+(potency/concentration of modulator)). The values given in the Tables (Summary) are obtained by fitting individual curves and subsequently averaging efficacy and potency. […]
GABA was then applied in combination with various concentrations of the compound of formula (II) between 0.3 nM and 3,000 nM to produce a cumulative concentration response curve. […] In each batch of oocytes the stimulation by 1 μM diazepam was determined in five oocytes, extent of stimulation averaged and defined as 100%. Where indicated, stimulation by the compound of formula (II) in each batch of oocytes was expressed as a percentage of this value in the corresponding batch. […]

GABAA receptors = conditions: 20 mg, PET, in man; cited from earlier work
α2β2γ2 GABAA receptors = target: T2, α2β2γ2 GABAA receptors (Rattus norvegicus, UniProt P18508+P23576); experiment: Stimulation of currents elicited by GABA (EC3-5), two-electrode voltage clamp, receptors expressed in Xenopus oocytes; format: cell-based; conditions: 1 μM; different batches of oocytes, n=5 each
T2 construct: expressed in transfected cells; host or cells: Xenopus laevis oocytes, cRNA microinjection
T2 sequence (P23576 29-451): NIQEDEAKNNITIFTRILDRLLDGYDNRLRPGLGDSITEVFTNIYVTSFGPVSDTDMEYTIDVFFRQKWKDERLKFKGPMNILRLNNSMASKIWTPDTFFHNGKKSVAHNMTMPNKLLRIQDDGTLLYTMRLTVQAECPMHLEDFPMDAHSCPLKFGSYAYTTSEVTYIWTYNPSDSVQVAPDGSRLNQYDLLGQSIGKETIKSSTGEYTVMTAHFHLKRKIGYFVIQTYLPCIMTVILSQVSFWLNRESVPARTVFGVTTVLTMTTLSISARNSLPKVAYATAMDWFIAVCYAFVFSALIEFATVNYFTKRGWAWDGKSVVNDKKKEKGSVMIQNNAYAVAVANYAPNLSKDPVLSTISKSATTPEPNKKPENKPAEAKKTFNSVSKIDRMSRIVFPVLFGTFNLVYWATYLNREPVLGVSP
T2 sequence (P63138 25-474 partner limits assumed): as the sequence (P63138 25-474 partner limits assumed) above
T2 sequence (P18508 39-466): as the sequence (P18508 39-466) above
Excerpt: as §1, §2, §3
as §4, with “The medium contained 90 mM NaCl, 1 mM KCl, 1 mM MgCl2, 1 mM CaCl2, 10 mM Na-Hepes (pH 7.4) and 0.5% DMSO.” left out
(§5) GABA was applied for 20-50 seconds without or in combination with other drugs and a washout period of 4 minutes was allowed to ensure full recovery from desensitization, which was experimentally determined. […]
(§6) Data is given as mean±SD, except in the figures where data is shown for clarity as mean±SEM. Current stimulation was calculated as follows: stimulation (%)=((I(GABA+modulator)−I(GABA))/I(GABA))×100%, where I is the current amplitude. […]
(§7) Current stimulation by diazepam was determined in each batch of oocytes as follows. […]

α3β2γ2 GABAA receptors = target: T3, α3β2γ2 GABAA receptors (Rattus norvegicus, UniProt P18508+P20236); experiment: as above; format: cell-based; conditions: 1 μM; different batches of oocytes, n=5 each
T3 construct: expressed in transfected cells; host or cells: Xenopus laevis oocytes, cRNA microinjection
T3 sequence (P20236 29-493): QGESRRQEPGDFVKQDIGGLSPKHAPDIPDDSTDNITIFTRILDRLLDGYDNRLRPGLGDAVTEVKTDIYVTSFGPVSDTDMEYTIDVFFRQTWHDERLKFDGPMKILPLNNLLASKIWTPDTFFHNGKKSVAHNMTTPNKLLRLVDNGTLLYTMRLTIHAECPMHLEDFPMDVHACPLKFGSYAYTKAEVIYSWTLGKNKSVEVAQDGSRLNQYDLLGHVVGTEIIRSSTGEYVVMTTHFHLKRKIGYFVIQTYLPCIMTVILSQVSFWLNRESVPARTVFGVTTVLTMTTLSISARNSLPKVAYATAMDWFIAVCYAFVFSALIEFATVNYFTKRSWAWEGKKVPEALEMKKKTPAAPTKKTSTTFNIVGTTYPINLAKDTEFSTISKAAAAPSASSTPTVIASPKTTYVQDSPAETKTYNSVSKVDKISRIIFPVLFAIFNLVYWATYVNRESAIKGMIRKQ
T3 sequence (P63138 25-474 partner limits assumed): as the sequence (P63138 25-474 partner limits assumed) above
T3 sequence (P18508 39-466): as the sequence (P18508 39-466) above
Excerpt: as §1, §2, §3
as §4, with “The medium contained 90 mM NaCl, 1 mM KCl, 1 mM MgCl2, 1 mM CaCl2, 10 mM Na-Hepes (pH 7.4) and 0.5% DMSO.” left out
as §5, §6, §7

α5β2γ2 GABAA receptors = target: T4, α5β2γ2 GABAA receptors (Rattus norvegicus, UniProt P18508+P19969); experiment: as above; format: cell-based; conditions: 1 μM; different batches of oocytes, n=5 each
T4 construct: expressed in transfected cells; host or cells: Xenopus laevis oocytes, cRNA microinjection
T4 sequence (P19969 32-464 limits assumed): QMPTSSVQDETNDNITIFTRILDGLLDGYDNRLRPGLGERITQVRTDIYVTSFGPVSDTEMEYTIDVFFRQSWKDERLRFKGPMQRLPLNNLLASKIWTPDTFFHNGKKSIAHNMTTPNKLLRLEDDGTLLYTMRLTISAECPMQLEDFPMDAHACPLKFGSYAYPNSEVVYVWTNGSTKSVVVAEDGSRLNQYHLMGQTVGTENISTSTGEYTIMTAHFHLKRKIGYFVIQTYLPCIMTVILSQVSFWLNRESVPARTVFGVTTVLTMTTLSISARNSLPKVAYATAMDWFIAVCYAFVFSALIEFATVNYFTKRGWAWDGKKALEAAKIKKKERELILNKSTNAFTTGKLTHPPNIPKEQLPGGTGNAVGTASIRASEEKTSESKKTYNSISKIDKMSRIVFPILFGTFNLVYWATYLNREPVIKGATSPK
T4 sequence (P63138 25-474 partner limits assumed): as the sequence (P63138 25-474 partner limits assumed) above
T4 sequence (P18508 39-466): as the sequence (P18508 39-466) above
Excerpt: as §1, §2, §3
as §4, with “The medium contained 90 mM NaCl, 1 mM KCl, 1 mM MgCl2, 1 mM CaCl2, 10 mM Na-Hepes (pH 7.4) and 0.5% DMSO.” left out
as §5, §6, §7

[1] = elderly; cited from earlier work

Cc1ccc(-c2nc3ccc(C)cn3c2CC(=O)N(C)C)cc1 [zolpidem]
Receptor subtype affinity in comparison to α2β2γ2, α3β2γ2 and α5β2γ2 (α1β2γ2 GABAA receptors): higher affinity at α1β2γ2 GABAA receptors
Intrinsic activity / type of allosteric modulation (α1β2γ2 GABAA receptors; GABAA receptor benzodiazepine site): full agonist
receptor occupancy (GABAA receptors): about 20%

CN1C(=O)CN=C(c2ccccc2)c2cc(Cl)ccc21 [diazepam]
Current stimulation (α1β2γ2 GABAA receptors; 1 μM, different batches of oocytes, n=5 each): 223±28% and 178±20%
Current stimulation (α2β2γ2 GABAA receptors): 264±61% and 280±71% and 318±62%
Current stimulation (α3β2γ2 GABAA receptors): 417±85% and 417±144%
Current stimulation (α5β2γ2 GABAA receptors): 237±97% and 160±4%

CN1CCN(C(=O)O[C@H]2c3nccnc3C(=O)N2c2ccc(Cl)cn2)CC1 [eszopiclone]
half-life [1]: 9 h

Reference: patent publication US10370378B2, “Treatment of sleep disorders” (Evotec International GmbH, priority 2007, dated 2019)
